From PubChem BioAssay AID1963849 (Molecular Pharmacology Branch, DTP, NCI, 2024)

System: 299254-011-R-J1-PDC complex spheroid viability
Test: Anticancer human tumor 299254-011-R-J1-PDC patient-derived melanoma cell line growth inhibition [POLQ]
Conditions: for IC50: curve of first compound; for viability, T/C: stronger effect = lower value
Procedure: Multicellular complex tumor spheroid response to Polymerase (POL) inhibitors (novobiocin, ART-558, RP6685) in combination with a variety of drugs and investigational agents in selected tumor cell lines
The POL inhibitors (novobiocin, ART-558, and RP6685) were evaluated both individually and in combination with standard of care and investigational anticancer small molecules within a complex spheroid model of solid tumors. . Complex spheroids include a stromal component modeled by human endothelial cells (HUVEC) and fibroblasts modeled by human mesenchymal stem cells (MSCs). The concentration ranges selected for each drug and investigational agent were based upon clinically achievable concentrations if the clinical Cmax of the agent was known.
Compounds. The drugs and investigational agents: novobiocin (NSC847541), ART-558 (NSC835418), RP-6685 (NSC848927), peposertib (NSC802822), ceralasertib (NSC780249), elimusertib (NSC800525), camonsertib (NSC841442), AZD-1390 (NSC803789), olaparib (NSC753686), talazoparib (NSC767125), rucaparib (NSC756644), sotorasib (NSC818433), MRTX-1133 (NSC836407), SN-38 (NSC673596), topotecan (NSC609699), epotoside (NSC141540), doxorubicin (NSC123127), gemcitabine (NSC613327), 5-fluorouracil (NSC19893), paclitaxel (NSC125973), vemurafenib (NSC761431), MSA-2 (NSC828583), SN-011 (NSC837082), adavosertib (NSC754352), prexasertib (NSC758257), carboplatin (NSC241240) and oxaliplatin (NSC266046), were obtained from the National Cancer Institute (NCI) Developmental Therapeutics Program Chemical Repository (21). The FDA-approved anticancer drug set is available from the Developmental Therapeutics Program at https://dtp.cancer.gov/organization/dscb/obtaining/. […] The stock solutions were prepared in dimethyl sulfoxide (DMSO, Sigma-Aldrich, St. Louis, MO, cat. D2650), except for the platinum compounds which were prepared in saline (Quality Biological, Gaithersburg, MD, cat. 114-055-101), at 800-fold the tested concentration and stored at -70 degrees C prior to their use. All drugs and investigational agents were tested over a range starting from a high concentration at or near the clinical Cmax and decreasing in half-log increments. If the clinical Cmax for an agent had not been determined, the highest concentration tested was 10 microM, except for SN-38, which was tested at a high concentration of 1 microM.
Cell Culture. All cells were maintained in an incubator at 37 degrees C and 5% CO2 with 95% humidity. The PDC lines were cultured according to standard operating procedures established by the NCI PDMR (https://pdmr.cancer.gov). Table 3 of the manuscript, lists the cell lines along with the number of the three cell types plated to form the mct-spheroids and media for tumor cell growth. After thawing, all PDC lines, except 997537-175-T-J1-PDC and 415267-285-R-J2-PDC, were cultured in Matrigel-coated flasks prepared with a working solution of 1X Ham's F-12 nutrient mix, without supplementation (Thermo Fisher Scientific, cat. 11765054), 100 U/mL penicillin-streptomycin (Thermo Fisher Scientific, cat. 15140122), and 2.5% Matrigel (Corning Inc., Corning, NY, cat. 354248) for the first three passages. The two PDC lines 997537-175-T-J1-PDC and 415267-285-R-J2-PDC were cultured on uncoated flasks. The 857933-349-R-J2-PDC line was cultured in 6C/Colon 1B media containing advanced DMEM/F-12 (Thermo Fisher Scientific, cat. 12634028), 10 mM HEPES (Thermo Fisher Scientific, cat. 15630080), 1X GlutaMAX supplement (Thermo Fisher Scientific, cat. 35050061), 0.1 mg/mL primocin (InvivoGen, San Diego, CA, cat. ant-pm-2), 10% defined fetal bovine serum, heat inactivated (HyClone Laboratories Inc., Logan, UT, cat. SH30070.03HI), 50% L-WRN conditioned media (ATCC, cat. CRL-3276), 1.25 mM N-Acetyl-L-cysteine (Sigma-Aldrich, cat. A9165), 10 mM nicotinamide (Sigma-Aldrich, cat. N0636), 1X B-27 supplement (Thermo Fisher Scientific, cat. 17504044), 1X N-2 supplement (Thermo Fisher Scientific, cat. […]

[1] = second compound 0.0316 µM, first compound 0.00316 µM
[2] = second compound 0.0316 µM, first compound 0.01 µM
[3] = second compound 0.0316 µM, first compound 0.0316 µM
[4] = second compound 0.0316 µM, first compound 0.1 µM
[5] = second compound 0.1 µM, first compound 0.00316 µM
[6] = second compound 0.1 µM, first compound 0.01 µM
[7] = second compound 0.1 µM, first compound 0.0316 µM
[8] = second compound 0.1 µM, first compound 0.1 µM
[9] = second compound 0.316 µM, first compound 0.00316 µM
[10] = second compound 0.316 µM, first compound 0.01 µM
[11] = second compound 0.316 µM, first compound 0.0316 µM
[12] = second compound 0.316 µM, first compound 0.1 µM
[13] = second compound 1 µM, first compound 0.00316 µM
[14] = second compound 1 µM, first compound 0.01 µM
[15] = second compound 1 µM, first compound 0.0316 µM
[16] = second compound 1 µM, first compound 0.1 µM
[17] = second compound 3.16 µM, first compound 0.00316 µM
[18] = second compound 3.16 µM, first compound 0.01 µM
[19] = second compound 3.16 µM, first compound 0.0316 µM
[20] = second compound 3.16 µM, first compound 0.1 µM
[21] = second compound 10 µM, first compound 0.00316 µM
[22] = second compound 10 µM, first compound 0.01 µM
[23] = second compound 10 µM, first compound 0.0316 µM
[24] = second compound 10 µM, first compound 0.1 µM
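Note: spheroids exposed to drugs for one week before measurement.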
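Throughout, for viability, T/C: percent viability relative to DMSO vehicle control taken as 100%.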

## COc1cccc(OCCCN)c1-c1cc(Nc2cnc(C#N)cn2)n[nH]1 + COC1C(OC(N)=O)C(O)C(Oc2ccc3c(O)c(NC(=O)c4ccc(O)c(CC=C(C)C)c4)c(=O)oc3c2C)OC1(C)C
Second compound 0.0316 µM
  IC50: 65.1 nM
Second compound 0.1 µM
  IC50: 119 nM
Second compound 0.316 µM
  IC50: 111 nM
Second compound 1 µM
  IC50: 206 nM
Second compound 3.16 µM
  IC50: 84.5 nM
Second compound 10 µM
  IC50: 126 nM
[1]
  viability, T/C: 99.5%
[2]
  viability, T/C: 94.9%
[3]
  viability, T/C: 58.7%
[4]
  viability, T/C: 49.6%
Second compound 0.0316 µM, first compound 0.316 µM
  viability, T/C: 41.6%
Second compound 0.0316 µM, first compound 1 µM
  viability, T/C: 38.1%
[5]
  viability, T/C: 94.2%
[6]
  viability, T/C: 98.6%
[7]
  viability, T/C: 72%
[8]
  viability, T/C: 53.9%
Second compound 0.1 µM, first compound 0.316 µM
  viability, T/C: 41.1%
Second compound 0.1 µM, first compound 1 µM
  viability, T/C: 38%
[9]
  viability, T/C: 105%
[10]
  viability, T/C: 102%
[11]
  viability, T/C: 74.5%
[12]
  viability, T/C: 52.4%
Second compound 0.316 µM, first compound 0.316 µM
  viability, T/C: 42.1%
Second compound 0.316 µM, first compound 1 µM
  viability, T/C: 39.6%
[13]
  viability, T/C: 114%
[14]
  viability, T/C: 89.2%
[15]
  viability, T/C: 74.2%
[16]
  viability, T/C: 56.8%
Second compound 1 µM, first compound 0.316 µM
  viability, T/C: 43.8%
Second compound 1 µM, first compound 1 µM
  viability, T/C: 39.9%
[17]
  viability, T/C: 99.5%
[18]
  viability, T/C: 105%
[19]
  viability, T/C: 65.7%
[20]
  viability, T/C: 55.1%
Second compound 3.16 µM, first compound 0.316 µM
  viability, T/C: 38.3%
Second compound 3.16 µM, first compound 1 µM
  viability, T/C: 48.6%
[21]
  viability, T/C: 105%
[22]
  viability, T/C: 104%
[23]
  viability, T/C: 67.7%
[24]
  viability, T/C: 56.9%
Second compound 10 µM, first compound 0.316 µM
  viability, T/C: 49%
Second compound 10 µM, first compound 1 µM
  viability, T/C: 40%

## Cn1ncnc1[C@H]1c2n[nH]c(=O)c3cc(F)cc(c23)N[C@@H]1c1ccc(F)cc1 + COC1C(OC(N)=O)C(O)C(Oc2ccc3c(O)c(NC(=O)c4ccc(O)c(CC=C(C)C)c4)c(=O)oc3c2C)OC1(C)C
Second compound 0.0316 µM
  IC50: > 100 nM
Second compound 0.1 µM
  IC50: > 100 nM
Second compound 0.316 µM
  IC50: > 100 nM
Second compound 1 µM
  IC50: > 100 nM
Second compound 3.16 µM
  IC50: > 100 nM
Second compound 10 µM
  IC50: > 100 nM
Second compound 0.0316 µM, first compound 0.000316 µM
  viability, T/C: 106%
Second compound 0.0316 µM, first compound 0.001 µM
  viability, T/C: 84.4%
[1]
  viability, T/C: 101%
[2]
  viability, T/C: 98.8%
[3]
  viability, T/C: 97%
[4]
  viability, T/C: 98.1%
Second compound 0.1 µM, first compound 0.000316 µM
  viability, T/C: 101%
Second compound 0.1 µM, first compound 0.001 µM
  viability, T/C: 91.3%
[5]
  viability, T/C: 105%
[6]
  viability, T/C: 90.9%
[7]
  viability, T/C: 106%
[8]
  viability, T/C: 87.6%
Second compound 0.316 µM, first compound 0.000316 µM
  viability, T/C: 89.4%
Second compound 0.316 µM, first compound 0.001 µM
  viability, T/C: 94.6%
[9]
  viability, T/C: 101%
[10]
  viability, T/C: 92%
[11]
  viability, T/C: 107%
[12]
  viability, T/C: 96.2%
Second compound 1 µM, first compound 0.000316 µM
  viability, T/C: 105%
Second compound 1 µM, first compound 0.001 µM
  viability, T/C: 111%
[13]
  viability, T/C: 102%
[14]
  viability, T/C: 118%
[15]
  viability, T/C: 96.5%
[16]
  viability, T/C: 97.4%
Second compound 3.16 µM, first compound 0.000316 µM
  viability, T/C: 99.7%
Second compound 3.16 µM, first compound 0.001 µM
  viability, T/C: 103%
[17]
  viability, T/C: 98.9%
[18]
  viability, T/C: 93.2%
[19]
  viability, T/C: 103%
[20]
  viability, T/C: 100%
Second compound 10 µM, first compound 0.000316 µM
  viability, T/C: 106%
Second compound 10 µM, first compound 0.001 µM
  viability, T/C: 105%
[21]
  viability, T/C: 115%
[22]
  viability, T/C: 112%
[23]
  viability, T/C: 119%
[24]
  viability, T/C: 99.6%
